Data taken from publication PMC4618480.

Experiments:
[1] = on-resin RCM stapling (Rink amide MBHA), 16 mol% Ru catalyst 1 (Grubbs I), then TFA/TIS/H2O cleavage; conditions: the molecule shown is the open-chain precursor, DCE, 40.0 °C
[2] = RCM, 10 mol% Ru catalyst 1 (Grubbs I), quenched with ethyl vinyl ether; conditions: DCE, 2.0 mM, 40.0 °C, 4.0 h
[3] = RCM, 10 mol% Ru catalyst 2 (Grubbs II), quenched with ethyl vinyl ether; conditions: DCE, 2.0 mM, 40.0 °C, 4.0 h
[4] = RCM, 10 mol% Ru catalyst 3 (Hoveyda-Grubbs II), quenched with ethyl vinyl ether; conditions: DCE, 2.0 mM, 40.0 °C, 4.0 h
[5] = RCM, 10 mol% Ru catalyst 4 (nitro-Hoveyda/Grela), quenched with ethyl vinyl ether; conditions: DCE, 2.0 mM, 40.0 °C, 4.0 h
[6] = RCM, 10 mol% Ru catalyst 5 (o-tolyl NHC Hoveyda type), quenched with ethyl vinyl ether; conditions: DCE, 2.0 mM, 40.0 °C, 4.0 h
[7] = RCM, 10 mol% Z-selective cyclometalated Ru catalyst 6 (Mes), quenched with ethyl vinyl ether; conditions: DCE, 2.0 mM, 40.0 °C, 4.0 h
[8] = RCM, 10 mol% Z-selective cyclometalated Ru catalyst 7 (Dipp), quenched with ethyl vinyl ether; conditions: DCE, 2.0 mM, 40.0 °C, 4.0 h
[9] = on-resin RCM stapling (Rink amide MBHA), 16 mol% Ru catalyst 2 (Grubbs II), then TFA/TIS/H2O cleavage; conditions: the molecule shown is the open-chain precursor, DCE, 40.0 °C
[10] = on-resin RCM stapling (Rink amide MBHA), 16 mol% Z-selective Ru catalyst 6 (Mes), then TFA/TIS/H2O cleavage; conditions: the molecule shown is the open-chain precursor, DCE, 40.0 °C
[11] = on-resin RCM stapling (Rink amide MBHA), 16 mol% Z-selective Ru catalyst 7 (Dipp), then TFA/TIS/H2O cleavage; conditions: the molecule shown is the open-chain precursor, DCE, 40.0 °C
[12] = on-resin RCM stapling (Rink amide MBHA), 16 mol% Ru catalyst 3 (Hoveyda-Grubbs II), then TFA/TIS/H2O cleavage; conditions: the molecule shown is the open-chain precursor, DCE, 40.0 °C
[13] = on-resin RCM stapling (Rink amide MBHA), 16 mol% Ru catalyst 4 (nitro-Hoveyda/Grela), then TFA/TIS/H2O cleavage; conditions: the molecule shown is the open-chain precursor, DCE, 40.0 °C
[14] = on-resin RCM stapling (Rink amide MBHA), 16 mol% Ru catalyst 5 (o-tolyl NHC Hoveyda type), then TFA/TIS/H2O cleavage; conditions: the molecule shown is the open-chain precursor, DCE, 40.0 °C
[15] = from C=CCSC[C@H](NC(=O)OC(C)(C)C)C(=O)N[C@@H](CC(C)C)C(=O)N[C@@H](CC(C)C)C(=O)N[C@@H](CSCC=C)C(=O)OC, 18-membered ring
[16] = from C=CCOC[C@H](NC(=O)OC(C)(C)C)C(=O)N[C@@H](CC(C)C)C(=O)N[C@@H](CC(C)C)C(=O)N[C@@H](COCC=C)C(=O)OC, 18-membered ring
[17] = from C=CCOc1ccc(C[C@H](NC(=O)OC(C)(C)C)C(=O)N[C@@H](CC(C)C)C(=O)N[C@@H](CC=C)C(=O)OC)cc1, 17-membered ring
[18] = from C=CCCOc1ccc(C[C@H](NC(=O)OC(C)(C)C)C(=O)N[C@@H](CC(C)C)C(=O)N[C@@H](CC=C)C(=O)OC)cc1, 18-membered ring
[19] = from C=CCCOc1ccc(C[C@H](NC(=O)OC(C)(C)C)C(=O)N[C@@H](CC(C)C)C(=O)N[C@@H](CCC=C)C(=O)OC)cc1, 19-membered ring
[20] = from C=CC[C@H](NC(=O)OC(C)(C)C)C(=O)N[C@@H](Cc1cn(S(=O)(=O)c2ccc(C)cc2)cn1)C(=O)NCC(=O)N[C@@H](CC=C)C(=O)OC, 14-membered ring
[21] = from C=CC[C@H](NC(=O)OC(C)(C)C)C(=O)N[C@@H](CC(C)C)C(=O)N[C@@H](CC(C)C)C(=O)N[C@@H](CC=C)C(=O)OCc1ccccc1, 14-membered ring
[22] = from C=CC[C@H](NC(=O)CNC(=O)[C@@H]1CCCN1C(=O)[C@H](CC=C)NC(=O)OC(C)(C)C)C(=O)OC, 14-membered ring

C=CCCCCCC[C@@](C)(NC(=O)[C@H](CC(N)=O)NC(=O)[C@@H](NC(=O)OCC1c2ccccc2-c2ccccc21)C(C)C)C(=O)N[C@@H](CCCCN)C(=O)N[C@@H](CCCCN)C(=O)N[C@H](C(=O)N[C@@H](CC(C)C)C(=O)NCC(=O)N[C@@H](CCCCN)C(=O)N[C@@](C)(CCCC=C)C(=O)N[C@H](C(=O)N[C@@H](CCCCN)C(=O)N[C@H](C(=O)N[C@H](C(=O)N[C@@H](CCCCN)C(N)=O)C(C)C)C(C)C)[C@@H](C)CC)[C@@H](C)CC
ring closure, conversion by HPLC ([1]; 33-membered ring): 88%

C=CCCCCCC[C@@](C)(NC(=O)[C@H](Cc1ccccc1)NC(=O)[C@@H](NC(=O)[C@H](CCC(N)=O)NC(=O)[C@H](CCC(N)=O)NC(=O)[C@H](CO)NC(=O)[C@H](CCC(N)=O)NC(=O)OCC1c2ccccc2-c2ccccc21)[C@@H](C)O)C(=O)N[C@@H](CC(N)=O)C(=O)N[C@@H](CC(C)C)C(=O)N[C@@H](Cc1c[nH]c2ccccc12)C(=O)N[C@@H](CCCNC(=N)N)C(=O)N[C@@H](CC(C)C)C(=O)N[C@@H](CC(C)C)C(=O)N[C@@](C)(CCCC=C)C(=O)N[C@@H](CCC(N)=O)C(=O)N[C@@H](CC(N)=O)C(N)=O
ring closure, conversion by HPLC ([1]; 33-membered ring): 92%

C=CCCC[C@](C)(NC(=O)[C@H](Cc1ccccc1)NC(=O)[C@@H](NC(=O)[C@H](Cc1c[nH]cn1)NC(=O)[C@](C)(CCCC=C)NC(=O)[C@H](CCCNC(=N)N)NC(=O)[C@H](CCC(=O)O)NC(=O)[C@H](CC(C)C)NC(=O)[C@H](CCC(=O)O)NC(=O)[C@H](C)NC(=O)OCC1c2ccccc2-c2ccccc21)[C@@H](C)O)C(=O)N[C@@H](CC(C)C)C(=O)N[C@@H](Cc1c[nH]cn1)C(=O)N[C@@H](CCC(N)=O)C(=O)N[C@@H](CCCNC(=N)N)C(N)=O
ring closure, conversion by HPLC ([1]; 21-membered ring): 93%

COC(=O)[C@@H]1CSCC=CCSC[C@H](NC(=O)OC(C)(C)C)C(=O)N[C@@H](CC(C)C)C(=O)N[C@@H](CC(C)C)C(=O)N1 [Boc-Cys(S-allyl)-Leu-Leu-Cys(S-allyl)-OMe]
ring closure, isolated yield [2, 15]: 77%
ring closure, isolated yield [3, 15]: 81%
ring closure, isolated yield [4, 15]: 79%
ring closure, isolated yield [5, 15]: 83%
ring closure, isolated yield [6, 15]: 42%
ring closure, isolated yield [7, 15]: 40%
ring closure, isolated yield [8, 15]: 33%

COC(=O)[C@@H]1COCC=CCOC[C@H](NC(=O)OC(C)(C)C)C(=O)N[C@@H](CC(C)C)C(=O)N[C@@H](CC(C)C)C(=O)N1 [Boc-Ser(O-allyl)-Leu-Leu-Ser(O-allyl)-OMe]
ring closure, isolated yield [2, 16]: 73%
ring closure, isolated yield [3, 16]: 76%
ring closure, isolated yield [5, 16]: 74%
ring closure, isolated yield [6, 16]: 44%
ring closure, isolated yield [7, 16]: 36%
ring closure, isolated yield [8, 16]: 34%

COC(=O)[C@@H]1CC=CCOc2ccc(cc2)C[C@H](NC(=O)OC(C)(C)C)C(=O)N[C@@H](CC(C)C)C(=O)N1 [Boc-Tyr(O-allyl)-Leu-allylGly-OMe]
ring closure, isolated yield [2, 17]: 58%
ring closure, isolated yield [3, 17]: 71%
ring closure, isolated yield [4, 17]: 63%
ring closure, isolated yield [5, 17]: 66%
ring closure, isolated yield [6, 17]: 45%
ring closure, isolated yield [7, 17]: 47%
ring closure, isolated yield [8, 17]: 41%

COC(=O)[C@@H]1CC=CCCOc2ccc(cc2)C[C@H](NC(=O)OC(C)(C)C)C(=O)N[C@@H](CC(C)C)C(=O)N1 [Boc-Tyr(O-homoallyl)-Leu-allylGly-OMe]
ring closure, isolated yield [2, 18]: 54%
ring closure, isolated yield [3, 18]: 61%
ring closure, isolated yield [4, 18]: 55%
ring closure, isolated yield [5, 18]: 60%
ring closure, isolated yield [6, 18]: 24%
ring closure, isolated yield [7, 18]: 21%
ring closure, isolated yield [8, 18]: 17%

COC(=O)[C@@H]1CCC=CCCOc2ccc(cc2)C[C@H](NC(=O)OC(C)(C)C)C(=O)N[C@@H](CC(C)C)C(=O)N1 [Boc-Tyr(O-homoallyl)-Leu-homoallylGly-OMe]
ring closure, isolated yield [2, 19]: 68%
ring closure, isolated yield [3, 19]: 77%
ring closure, isolated yield [4, 19]: 70%
ring closure, isolated yield [5, 19]: 66%
ring closure, isolated yield [6, 19]: 44%
ring closure, isolated yield [7, 19]: 26%
ring closure, isolated yield [8, 19]: 24%

COC(=O)[C@@H]1CC=CC[C@H](NC(=O)OC(C)(C)C)C(=O)N[C@@H](Cc2cn(S(=O)(=O)c3ccc(C)cc3)cn2)C(=O)NCC(=O)N1 [Boc-allylGly-His(Tos)-Gly-allylGly-OMe]
ring closure, isolated yield [2, 20]: 14%
ring closure, isolated yield [3, 20]: 18%
ring closure, isolated yield [4, 20]: < 10%
ring closure, isolated yield [5, 20]: 12%
ring closure, isolated yield [6, 20]: < 5%

CC(C)C[C@@H]1NC(=O)[C@@H](NC(=O)OC(C)(C)C)CC=CC[C@@H](C(=O)OCc2ccccc2)NC(=O)[C@H](CC(C)C)NC1=O [Boc-allylGly-Leu-Leu-allylGly-OBn]
ring closure, isolated yield [2, 21]: 70%
ring closure, isolated yield [3, 21]: 74%
ring closure, isolated yield [4, 21]: 61%
ring closure, isolated yield [5, 21]: 64%
ring closure, isolated yield [6, 21]: 39%
ring closure, isolated yield [7, 21]: 32%
ring closure, isolated yield [8, 21]: 30%

COC(=O)[C@@H]1CC=CC[C@H](NC(=O)OC(C)(C)C)C(=O)N2CCC[C@H]2C(=O)NCC(=O)N1 [Boc-allylGly-Pro-Gly-allylGly-OMe]
ring closure, isolated yield [2, 22]: 37%
ring closure, isolated yield [3, 22]: 48%
ring closure, isolated yield [4, 22]: 41%
ring closure, isolated yield [5, 22]: 36%
ring closure, isolated yield [6, 22]: 20%
ring closure, isolated yield [7, 22]: 17%
ring closure, isolated yield [8, 22]: 18%

C=CCCC[C@](C)(NC(=O)[C@H](CC(C)C)NC(=O)[C@H](CC(C)C)NC(=O)[C@H](CC(=O)O)NC(=O)[C@](C)(CCCC=C)NC(=O)[C@H](Cc1ccccc1)NC(=O)[C@@H](NC(=O)[C@@H](NC(=O)OCC1c2ccccc2-c2ccccc21)[C@@H](C)CC)[C@@H](C)O)C(=O)N[C@@H](Cc1ccc(O)cc1)C(=O)N[C@@H](Cc1ccc(O)cc1)C(=O)NCC(=O)N1CCC[C@H]1C(N)=O [Fmoc-Ile-Thr-Phe-S5-Asp-Leu-Leu-S5-Tyr-Tyr-Gly-Pro-NH-resin]
ring closure, conversion by HPLC ([1]; 21-membered ring): 90%

Fmoc-Ala-Glu-Leu-Glu-Arg-S5-His-Thr-Phe-S5-Leu-His-Gln-Arg-NH-resin
ring closure, conversion by HPLC ([9]; 21-membered ring): 85%
ring closure, conversion by HPLC ([10]; 21-membered ring): 80%
ring closure, conversion by HPLC ([11]; 21-membered ring): 70%
ring closure, conversion by HPLC ([12]; 21-membered ring): 88%
ring closure, conversion by HPLC ([13]; 21-membered ring): 92%

Fmoc-Gln-Ser-Gln-Gln-Thr-Phe-R8-Asn-Leu-Trp-Arg-Leu-Leu-S5-Gln-Asn-NH-resin
ring closure, conversion by HPLC ([9]; 33-membered ring): 90%
ring closure, conversion by HPLC ([10]; 33-membered ring): 75%
ring closure, conversion by HPLC ([11]; 33-membered ring): 70%
ring closure, conversion by HPLC ([13]; 33-membered ring): 85%
ring closure, conversion by HPLC ([14]; 33-membered ring): 80%

Fmoc-Ile-Thr-Phe-S5-Asp-Leu-Leu-S5-Tyr-Tyr-Gly-Pro-NH-resin
ring closure, conversion by HPLC ([9]; 21-membered ring): 90%
ring closure, conversion by HPLC ([11]; 21-membered ring): 75%
ring closure, conversion by HPLC ([12]; 21-membered ring): 81%
ring closure, conversion by HPLC ([13]; 21-membered ring): 80%
ring closure, conversion by HPLC ([14]; 21-membered ring): 70%

Fmoc-Val-Asn-R8-Lys-Lys-Ile-Leu-Gly-Lys-S5-Ile-Lys-Val-Val-Lys-NH-resin
ring closure, conversion by HPLC ([9]; 33-membered ring): 94%
ring closure, conversion by HPLC ([10]; 33-membered ring): 70%
ring closure, conversion by HPLC ([11]; 33-membered ring): 55%
ring closure, conversion by HPLC ([12]; 33-membered ring): 80%
ring closure, conversion by HPLC ([13]; 33-membered ring): 85%
ring closure, conversion by HPLC ([14]; 33-membered ring): 60%
